# System: Wistar type male rat
# Assay: Activity to resist growth of ulcer (ethanol hydrochloric acid induced gastric injury)
# Assay type: in vivo
# Conditions: 30mg/kg orally, 1 hour before oral ethanol hydrochloric acid, ulcer index 1 hour later
# Description: A Wistar type male rat (body weight 150 to 200 g) was fasted for 24 hours, then orally administered with a catechol compound according with the present invention and, on elapse of 1 hour thereafter, orally administered with ethanol hydrochloric acid (having 150 mM hydrochloric acid contained in 60% ethanol) at a rate of 0.5 ml/100 g of body weight.
# After 1 hour following the oral administration of ethanol hydrochloric acid, the rat was sacrified with ether. The stomach was excited from the corpse, treated with formalin, and visually examined to measure lengths of injuries generated on the glanular part of the stomach. The total of injuries was reported as an ulcer index of the rat in question.
# The term "ratio of inhibiting formation of ulcer (%)" as used in the table refers to a numerical value obtained by subtracting the ulcer index of a rat orally administered with a given catechol compound according with the present invention from the ulcer index of a rat not orally administered with catechol compound and multiplying the difference by 100.
row,SMILES,Ratio of inhibiting formation of ulcer (%)
1,"CCCCCCCCCC(O)CC(=O)CCc1ccc(O)c(O)c1 (stereo not drawn) [Example 4, 1-(3,4-hydroxyphenyl)-5-hydroxytetradecan-3-one]",84.4

# Same assay, conditions: 30mg/kg orally, 1 hour before oral ethanol hydrochloric acid, ulcer index 1 hour later, read-out: Ratio of inhibiting formation of ulcer (%)
row,SMILES,inhibition in vivo at 30 mg/kg [%]
1,"CCCCCCCCCC(=O)CC(=O)C=Cc1ccc(O)c(O)c1 [Example 1, 1-(3,4-dihydroxyphenyl)-1-tetradecen-3,5-dione]",82.4
2,"CCCCCCCCCC(=O)CC(=O)CCc1ccc(O)c(O)c1 [Example 2, 1-(3,4-dihydroxyphenyl)-3,5-tetradecane dione]",92.1
3,"CCCCCCCC(=O)CC(=O)C=Cc1ccc(O)c(O)c1 [Example 7, 1-(3,4-dihydroxyphenyl)-1-dodecen-3,5-dione]",85.7
4,"CCCCCCCC(=O)CC(=O)CCc1ccc(O)c(O)c1 [Example 8, 1-(3,4-dihydroxyphenyl)-3,5-dodecane dione]",88.3
5,"CCCCCC(=O)CC(=O)C=Cc1ccc(O)c(O)c1 [Example 9, 1-(3,4-dihydroxyphenyl)-1-decen-3,5-dione]",77.9
6,"CCCCCC(=O)CC(=O)CCc1ccc(O)c(O)c1 [Example 10, 1-(3,4-dihydroxyphenyl)-3,5-decane dione]",84.6
7,"CCCC(=O)CC(=O)C=Cc1ccc(O)c(O)c1 [Example 11, 1-(3,4-dihydroxyphenyl)-1-octen-3,5-dione]",58.7
8,"CCCC(=O)CC(=O)CCc1ccc(O)c(O)c1 [Example 12, 1-(3,4-dihydroxyphenyl)-3,5-octadione]",81.8

# Reference: patent publication EP0402469B1, “CATECHOL COMPOUNDS, PROCESS FOR THEIR PREPARATION AND PHARMACEUTICAL PREPARATION CONTAINING SAME” (TERUMO KABUSHIKI KAISHA, priority 1988, dated 1989)
